# Like-named read-outs stand apart in the source and are kept apart here.
# Columns and labels:
# [1] = biological target: T1, WT TALK-2 channels (human K2P17.1) (Homo sapiens, UniProt Q96T54); test: Inside-out patch-clamp, ligand activation of channel currents at +40 mV (oocytes)
# T1 sequence (Q96T54 1-332): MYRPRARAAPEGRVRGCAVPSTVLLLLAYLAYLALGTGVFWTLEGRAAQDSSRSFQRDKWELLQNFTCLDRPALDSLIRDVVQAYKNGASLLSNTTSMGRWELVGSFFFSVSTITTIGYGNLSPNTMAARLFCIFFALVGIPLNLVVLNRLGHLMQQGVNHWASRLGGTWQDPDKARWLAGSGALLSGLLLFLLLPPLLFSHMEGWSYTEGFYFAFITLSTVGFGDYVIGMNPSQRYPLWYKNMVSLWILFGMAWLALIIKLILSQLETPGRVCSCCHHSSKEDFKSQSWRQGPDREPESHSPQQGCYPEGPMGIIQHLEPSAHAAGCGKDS
# Method: (§1) Oocytes were surgically removed from anesthetized adult females, treated with type II collagenase (Sigma-Aldrich/Merck, Germany) and manually defolliculated. 50 nl of a solution containing the K^+ channel specific cRNA was injected into Dumont stage V - VI oocytes and subsequently incubated at 17 °C in a solution containing (mM): 54 NaCl, 30 KCl, 2.4 NaHCO3, 0.82 MgSO4 x 7 H2O, 0.41 CaCl2, 0.33 Ca(NO3)2 x 4 H2O and 7.5 TRIS (pH 7.4 adjusted with NaOH/HCl) for 1–7 days before use. Electrophysiological recordings: Excised patch measurements in inside-out configuration under voltage-clamp conditions were performed at room temperature (22 – 24 °C). […] Intracellular bath solutions and compounds were applied to the cytoplasmic side of excised patches for the various K^+ channels via a gravity flow multi-barrel pipette system. Intracellular solution had the following composition (in mM): 120 KCl, 10 HEPES, 2 EGTA and 1 Pyrophosphate (pH adjusted with KOH/HCl). In other intracellular bath solutions, K^+ was replaced by Rb^+ (pH 7.4 adjusted with RbOH/HCl). Currents were recorded with an EPC10 amplifier (HEKA electronics, Germany) and sampled at 10 kHz or higher and filtered with 3 kHz (-3 dB) or higher as appropriate for sampling rate.
# (§2) Recorded currents were analyzed from stable membrane patches at a voltage defined in the respective figure legend or with a voltage protocol as indicated in the respective figure. The fold activation (fold change in (tail) current amplitude) of a ligand (drug or bioactive lipid) was calculated from Eq. 1:1 Fold activationFA=Iactivated/Ibasal where Iactivated represents the stable current level in the presence of a given concentration of a respective ligand and Ibasal the measured current before ligand application. Percentage inhibition or residual currents upon blocker application for a ligand (drug or bioactive lipid) was calculated from stable currents of excised membrane patches using the following Eqs. 2 and 3:2 %inhibition=1−Iinhibited/Ibasal*100 3 Residual current=100−%inhibition where Iinhibited refers to the stable current level recorded in the presence of a given concentration of a drug or bioactive lipid and Ibasal to the measured current before ligand application. The macroscopic half-maximal concentration-inhibition relationship of a ligand was obtained using a Hill-fit for dose-response curves as depicted in Eq. 4:4 %inhibition/activation=Ibase+Imax−Ibase/1+x1/2/x^rate where base and max are the currents in the absence and presence of a respective ligand, x is the concentration of the ligand, x1/2 is the ligand concentration at which the activatory or inhibitory effect is half-maximal, rate is the Hill coefficient.
# WT TALK-2 channels [2] = biological target: T2, WT TALK-2 channels (Homo sapiens, UniProt Q96T54); test: Conductance-voltage (G-V) curves from tail currents, V1/2 (intracellular Rb+); assay type: cell-based; design: expressed in transfected cells; host or cells: Xenopus laevis oocytes (cRNA injection), excised inside-out patches; conditions: for Normalized current: TALK-2 WT + 1 mM 2-APB
# T2 sequence (Q96T54 1-332): T1 sequence (Q96T54 1-332)
# From the text: The voltage-dependent activation mechanism of the SF gate in K2P channels allows to estimate the electrical work (ΔG = zFΔV1/2) required for pore opening by fitting the G–V curve to a Boltzmann equation. […] The open state represents the situation of both gates being simultaneously open but voltage can only exert force on the SF gate that functions as voltage sensor. […] We further tested whether mutations that open the lower gate (L262A and L264A) would affect the extracellular pH sensitivity. […] We further explored this concept of allosteric coupling using the mutations identified in the functional alanine screen of TM2 and TM4. […]
# Conductance-voltage (G–V) relationships were determined from tail currents recorded at a holding potential (VH) of −80 mV after 300 ms depolarizing steps as indicated in the respective figure legend. Data were analyzed with a single Boltzmann fit following Eq. 6:6 GV=Imax/1+e^V−V1/2/slope+Ibase where V1/2 represents the voltage of half-maximal activation, s is the slope factor and Imax and Ibase represent the upper and lower asymptotes. Under appropriate experimental conditions, you can use slope to calculate the valence (charge) of the ion moving across the channel. Slope equals R * T/ z * F where R is the universal gas constant, T is temperature in K, F is the Faraday constant, and z is the valence.
# WT TALK-2 channels [3] = biological target: T2, WT TALK-2 channels; conditions: TALK-2 WT
# Method: Data shown are the mean ± s.e.m and the number (n) of repeats of the representative measurements with similar results is indicated in the figure.
# Oocytes were surgically removed from anesthetized adult females, treated with type II collagenase (Sigma-Aldrich/Merck, Germany) and manually defolliculated. 50 nl of a solution containing the K^+ channel specific cRNA was injected into Dumont stage V - VI oocytes and subsequently incubated at 17 °C in a solution containing (mM): 54 NaCl, 30 KCl, 2.4 NaHCO3, 0.82 MgSO4 x 7 H2O, 0.41 CaCl2, 0.33 Ca(NO3)2 x 4 H2O and 7.5 TRIS (pH 7.4 adjusted with NaOH/HCl) for 1–7 days before use. Electrophysiological recordings: Excised patch measurements in inside-out configuration under voltage-clamp conditions were performed at room temperature (22 – 24 °C). Patch pipettes were made from thick-walled borosilicate glass GB 200TF-8P (Science Products, Germany), had resistances of 0.2–0.5 MΩ (tip diameter of 10 - 25 µm) and filled with a pipette solution (in mM): 120 KCl, 10 HEPES and 3.6 CaCl2 (pH 7.0 - 8.5 adjusted with KOH/HCl) or 120 KCl, 10 AMPSO and 3.6 CaCl2 (pH 9.0 - 10.5 adjusted with KOH/HCl). Intracellular bath solutions and compounds were applied to the cytoplasmic side of excised patches for the various K^+ channels via a gravity flow multi-barrel pipette system. Intracellular solution had the following composition (in mM): 120 KCl, 10 HEPES, 2 EGTA and 1 Pyrophosphate (pH adjusted with KOH/HCl). In other intracellular bath solutions, K^+ was replaced by Rb^+ (pH 7.4 adjusted with RbOH/HCl). Currents were recorded with an EPC10 amplifier (HEKA electronics, Germany) and sampled at 10 kHz or higher and filtered with 3 kHz (-3 dB) or higher as appropriate for sampling rate.
# [4] = tested on: WT TREK-1 channels (human K2P2.1); conditions: TREK-1 WT
# Method: as §1, §2
compound,measurement,setting,value
"NCCOB(c1ccccc1)c1ccccc1 [2-APB, 2-aminoethoxydiphenyl borate]",EC50,[1],421 ± 34 µM
same,Fold activation 1 mM 2-APB,"[1]; 1 mM, TALK-2 WT",26.51 fold
same,Normalized currents,"[1]; TALK-2 WT, 0.1 µM 2-APB",0.04
same,Normalized currents,"[1]; TALK-2 WT, 1 µM 2-APB",0.04
same,Normalized currents,"[1]; TALK-2 WT, 10 µM 2-APB",0.05
same,Normalized currents,"[1]; TALK-2 WT, 100 µM 2-APB",0.19
same,Normalized currents,"[1]; TALK-2 WT, 500 µM 2-APB",0.58
same,Normalized currents,"[1]; TALK-2 WT, 1000 µM 2-APB",0.87
same,Normalized currents,"[1]; TALK-2 WT, 2000 µM 2-APB",1.00
same,V1/2 shift (mV),"WT TALK-2 channels [2]; 1 mM 2-APB, shift of G-V curve",26.9 mV
same,Normalized current,WT TALK-2 channels [2]; Voltage 0.000,0.204
same,Normalized current,WT TALK-2 channels [2]; Voltage 0.005,0.227
same,Normalized current,WT TALK-2 channels [2]; Voltage 0.010,0.255
same,Normalized current,WT TALK-2 channels [2]; Voltage 0.015,0.290
same,Normalized current,WT TALK-2 channels [2]; Voltage 0.020,0.331
same,Normalized current,WT TALK-2 channels [2]; Voltage 0.025,0.376
same,Normalized current,WT TALK-2 channels [2]; Voltage 0.030,0.427
same,Normalized current,WT TALK-2 channels [2]; Voltage 0.035,0.474
same,Normalized current,WT TALK-2 channels [2]; Voltage 0.040,0.520
same,Normalized current,WT TALK-2 channels [2]; Voltage 0.045,0.565
same,Normalized current,WT TALK-2 channels [2]; Voltage 0.050,0.611
same,Normalized current,WT TALK-2 channels [2]; Voltage 0.055,0.652
same,Normalized current,WT TALK-2 channels [2]; Voltage 0.060,0.689
same,Normalized current,WT TALK-2 channels [2]; Voltage 0.065,0.723
same,Normalized current,WT TALK-2 channels [2]; Voltage 0.070,0.754
same,Normalized current,WT TALK-2 channels [2]; Voltage 0.075,0.784
same,Normalized current,WT TALK-2 channels [2]; Voltage 0.080,0.809
same,Normalized current,WT TALK-2 channels [2]; Voltage 0.085,0.834
same,Normalized current,WT TALK-2 channels [2]; Voltage 0.090,0.854
same,Normalized current,WT TALK-2 channels [2]; Voltage 0.095,0.872
same,Normalized current,WT TALK-2 channels [2]; Voltage 0.100,0.891
same,Normalized current,WT TALK-2 channels [2]; Voltage 0.105,0.905
same,Normalized current,WT TALK-2 channels [2]; Voltage 0.110,0.919
same,Normalized current,WT TALK-2 channels [2]; Voltage 0.115,0.931
same,Normalized current,WT TALK-2 channels [2]; Voltage 0.120,0.943
same,Normalized current,WT TALK-2 channels [2]; Voltage 0.125,0.952
same,Normalized current,WT TALK-2 channels [2]; Voltage 0.130,0.961
same,Normalized current,WT TALK-2 channels [2]; Voltage 0.135,0.972
same,Normalized current,WT TALK-2 channels [2]; Voltage 0.140,0.971
same,Normalized current,WT TALK-2 channels [2]; Voltage 0.145,0.979
same,Normalized current,WT TALK-2 channels [2]; Voltage 0.150,0.985
same,Normalized current,WT TALK-2 channels [2]; Voltage 0.155,0.989
same,Normalized current,WT TALK-2 channels [2]; Voltage 0.160,0.992
same,Normalized current,WT TALK-2 channels [2]; Voltage -0.005,0.187
same,Normalized current,WT TALK-2 channels [2]; Voltage -0.010,0.175
same,Normalized current,WT TALK-2 channels [2]; Voltage -0.015,0.167
same,Normalized current,WT TALK-2 channels [2]; Voltage -0.020,0.158
same,Normalized current,WT TALK-2 channels [2]; Voltage -0.025,0.153
same,Normalized current,WT TALK-2 channels [2]; Voltage -0.030,0.148
same,Normalized current,WT TALK-2 channels [2]; Voltage -0.035,0.143
same,Normalized current,WT TALK-2 channels [2]; Voltage -0.040,0.140
same,Normalized current,WT TALK-2 channels [2]; Voltage -0.045,0.136
same,Normalized current,WT TALK-2 channels [2]; Voltage -0.050,0.131
same,Normalized current,WT TALK-2 channels [2]; Voltage -0.055,0.128
same,Normalized current,WT TALK-2 channels [2]; Voltage -0.060,0.125
same,Normalized current,WT TALK-2 channels [2]; Voltage -0.065,0.121
same,Normalized current,WT TALK-2 channels [2]; Voltage -0.070,0.118
same,Normalized current,WT TALK-2 channels [2]; Voltage -0.075,0.115
same,Normalized current,WT TALK-2 channels [2]; Voltage -0.080,0.114
same,Normalized current,WT TALK-2 channels [2]; Voltage -0.085,0.112
same,Normalized current,WT TALK-2 channels [2]; Voltage -0.090,0.113
same,Normalized current,WT TALK-2 channels [2]; Voltage -0.095,0.112
same,Normalized current,WT TALK-2 channels [2]; Voltage -0.100,0.112
same,Normalized current,WT TALK-2 channels [2]; Voltage -0.105,0.111
same,Normalized current,WT TALK-2 channels [2]; Voltage -0.110,0.110
same,Normalized current,WT TALK-2 channels [2]; Voltage -0.115,0.110
same,Normalized current,WT TALK-2 channels [2]; Voltage -0.120,0.111
same,V1/2,"WT TALK-2 channels [2]; TALK-2 WT, 1 mM ligand",44.7 mV
same,Rb+-induced current,WT TALK-2 channels [3]; 0.001 mM 2-APB,0.79 nA
same,Rb+-induced current,WT TALK-2 channels [3]; 0.01 mM 2-APB,0.98 nA
same,Rb+-induced current,WT TALK-2 channels [3]; 0.1 mM 2-APB,2.85 nA
same,Rb+-induced current,WT TALK-2 channels [3]; 0.5 mM 2-APB,8.79 nA
same,Rb+-induced current,WT TALK-2 channels [3]; 1.0 mM 2-APB,11.82 nA
same,Rb+-induced current,WT TALK-2 channels [3]; 2.0 mM 2-APB,15.32 nA
same,Normalized currents,[4]; 0.1 µM 2-APB,0.03
same,Normalized currents,[4]; 1 µM 2-APB,0.04
same,Normalized currents,[4]; 10 µM 2-APB,0.08
same,Normalized currents,[4]; 100 µM 2-APB,0.28
same,Normalized currents,[4]; 200 µM 2-APB,0.47
same,Normalized currents,[4]; 500 µM 2-APB,0.80
same,Normalized currents,[4]; 1000 µM 2-APB,0.97
same,Normalized currents,[4]; 2000 µM 2-APB,0.99

# — article PMC11364775, “Ion occupancy of the selectivity filter controls opening of a cytoplasmic gate in the K2P channel TALK-2” (Nature Communications, 2024)
